Results as given in EPA's ToxValDB 9.5 (doi:10.2903/j.efsa.2008.145r).
Converted amounts (≈) assume the structure as drawn.

Legend:
Apis mellifera = details: acute; duration: 48 hours; oral; unspecified; mortality
Bibionidae = details: chronic/long-term; duration: 28 days
Coturnix japonica = details: acute, oral, mortality
Daphnia magna = details: chronic/long-term; duration: 21 days; reproduction
Tagia sp. = details: acute; duration: 14 days; mortality

For Cc1cccc(C)c1N(Cn1cccn1)C(=O)CCl [Metazachlor], the LD50 (Apis mellifera) was > 72.2 µg/piece, the NOEC (Bibionidae) was 7.93 mg/kg and the LD50 (Colinus virginianus; acute, oral, mortality) was > 2000 mg/kg. For the same molecule, the NOEL (Colinus virginianus; reproduction developmental) was 76.5 mg/kg-day, the LD50 (Coturnix japonica; diet) was > 449 mg/kg-day and the LD50 (Coturnix japonica) was > 2000 mg/kg. For the same molecule, the NOEC (Daphnia magna) was 0.1 mg/L, the LC50 (Oncorhynchus mykiss; acute, duration: 96 hours, mortality) was 8.5 µg/mL (≈ 30.6 µM) and the NOEC (Oncorhynchus mykiss; chronic/long-term, duration: 28 days, growth) was 2.15 mg/L. The LD50 (Rattus norvegicus; acute, mortality) was > 2000 mg/kg, the NOAEL (Rattus norvegicus; chronic) was 79 mg/kg-day and the NOAEL (Rattus norvegicus; chronic, duration: 2 years, organ weight) was 8.5 mg/kg-day. For the same molecule, the NOAEL (Rattus norvegicus; developmental, development) was 50 mg/kg-day, the NOAEL (Rattus norvegicus; subchronic, duration: 90 days, oral, organ weight) was 21 mg/kg-day and the LC50 (Tagia sp.) was > 1000 mg/kg.
